Assay results: the METLIN SMRT retention time set (Domingo-Almenara et al. 2019)

Assay: gradient 5% acetonitrile 3 min, to 50% in 2 min, to 85% in 15 min, held 3 min, 100 µL/min
Conditions: column: Zorbax Extend-C18 2.1 x 50 mm; eluents: water / acetonitrile, 0.1% formic acid
Outline: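 The mobile phases were water and acetonitrile, each with 0.1% formic acid, pumped at 100 μL/min through a Zorbax Extend-C18 column (2.1 × 50 mm, 1.8 μm). Pure standards were injected as mixtures of ~100 molecules and detected by a quadrupole time-of-flight mass spectrometer in positive and negative ionization mode. Retention time came from computationally picked adduct peaks, each inspected by hand.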

SMILES	RP-LC retention time
CCN1CCN(CCNC(=O)c2cc3n(n2)CCCN(Cc2ccc(F)cc2)C3=O)CC1	593 s
CCCN(C)C(=O)C1CCN(c2cnn(Cc3ccccc3)c(=O)c2)CC1	728 s
COCCNc1c(C(=O)OC)c(=O)[nH]c2c(Cl)cccc12	645 s
Cc1ccc(-c2nnc(-c3nc(N4CCCCCC4)c4ccccc4n3)o2)cc1	750 s
CC(C)CCNC(=O)c1ccc2c(=O)n(-c3ccc(F)cc3)c(N3CCCC3)nc2c1	912 s
CCCOc1ccc(N2CCN(C(=O)c3cc(Cl)ccc3OC)CC2)nn1	670 s
Cc1cccc(CNS(=O)(=O)c2cc3n(c2)CCCNC3=O)c1	677 s
COc1ccccc1-c1csc(NC(=O)Cc2csc(-c3ccccc3)n2)n1	1150 s
CC1CCC(NC(=O)Cc2csc3nc(-c4ccccc4)cn23)CC1 (centres undefined)	843 s
O=C(C1CC(=O)N(c2cccc(-c3noc(C4CCC4)n3)c2)C1)N1CCN(c2ccccc2)CC1 (centres undefined)	1010 s
O=c1c2nnc(SCc3ccccc3)n2ccn1-c1ccc(Br)cc1	812 s
O=C(NCc1nc(-c2ccc(-c3csc(-c4ccccc4)n3)cc2)no1)c1ccco1	1090 s
CCOC(=O)CNC(=O)N1CCCC1c1ccc(C)cc1 (centres undefined)	801 s
O=C(Nc1nnc(C2=COCCO2)o1)c1cc2cc([N+](=O)[O-])ccc2s1	759 s
COc1ccc(C)cc1NC(=O)C1CCN(c2cc(N3CCSCC3)ncn2)CC1	717 s
COc1ccccc1-c1noc(Cn2c(=O)n(CCc3ccccc3)c(=O)c3sccc32)n1	1030 s
O=C(NCCCN1CCCC1)C1CCCN(c2nccnc2Sc2ccccc2)C1 (centres undefined)	659 s
Cc1ccc(Cn2c(=O)c(N3CCCC(C(=O)NCc4cccs4)C3)nc3ccccc32)cc1 (centres undefined)	1170 s
O=C(NCCN1CCOCC1)c1ccc2c(c1)CCCN2S(=O)(=O)c1ccc(Cl)cc1	689 s
COc1ccc(-c2noc(C3CCCN3C(=O)Nc3ccccc3OC)n2)cc1 (centres undefined)	826 s
COc1ncccc1CNC(=O)NCc1ccc(F)cc1	668 s
COc1cc2c(cc1O)CC1c3c(cc(O)c(OC)c3-2)CCN1C (centres undefined)	628 s
COc1ccc(C(=O)CSc2nnc(NC(=O)CN(C)S(C)(=O)=O)s2)cc1	700 s

SMILES	RP-LC retention time
O=C(NC(c1ccccc1)c1nnc(N2CCOCC2)o1)C1CCCCC1 (centres undefined)	735 s
COC(=O)C(C)Oc1cc(O)c2c(=O)cc(-c3ccccc3)oc2c1 (centres undefined)	1060 s
Cc1nn(-c2ccccc2)c2nc(N3CCCC(C(=O)NCCN4CCOCC4)C3)sc12 (centres undefined)	670 s
O=C(NCc1ccccc1)C1CCCCN1S(=O)(=O)c1ccc(F)cc1 (centres undefined)	940 s
Cn1cc2c(N3CCCC3)nc(C(=O)NCc3ccccc3C(F)(F)F)nc2n1	646 s
O=C(OCCN1CCCCC1)c1c[nH]c2ccccc12	666 s
O=C(NCCc1ccco1)C1CCCN(C(=O)c2cccn2-c2cccnc2)C1 (centres undefined)	660 s
COc1ccc(C)cc1NC(=O)C1CCN(S(=O)(=O)c2cn(C(C)C)cn2)CC1	810 s
Cc1nc(-c2ccccc2)nc2c1CCC(=O)N2Cc1cccnc1	673 s
COc1ccc(OC)c(NC(=O)Nc2c(-c3ccc(C)cc3)nc3ccccn23)c1	698 s
Cc1ccc(-c2ccc(=O)n(Cc3nc(-c4cccs4)no3)n2)cc1C	1060 s
CCC(O)c1nc2ccccc2n1CC(=O)N(C)c1ccccc1 (centres undefined)	624 s
O=C(Nc1cccc(Cl)c1)C1CCCN(C(=O)c2cc(-c3ccccn3)n[nH]2)C1 (centres undefined)	740 s
CC(C)NC(=O)c1ccc(OCC2CCN(C(=O)c3ccccc3C(F)(F)F)CC2)cc1	899 s
Cc1cc(C)cc(NC(=O)c2cccn2Cc2noc(C)n2)c1	928 s
O=C(COc1ccc(F)cc1)N1CCN(C(=O)c2nnn3c2COC(c2ccc(Cl)cc2)C3)CC1 (centres undefined)	937 s
CC(NC(=O)c1ccc2c(c1)nc1n2CCN(C2CCCCC2)C1=O)c1ccccc1 (centres undefined)	836 s
COCCCNC(=O)C1c2ccccc2C(=O)N(C2CCCCC2)C12CCCCC2 (centres undefined)	946 s
CCCNC(=O)C1c2ccccc2CCN1C(=O)C1CC1 (centres undefined)	725 s
Cc1cccc(OCC(=O)N2CCN(c3cc(C)n4cnnc4n3)CC2)c1	621 s
CS(=O)(=O)N1CCC(N2C[C@H](Oc3ccccc3)[C@@H]2c2ccncc2)CC1	630 s
CCN1CCn2cc(S(=O)(=O)Nc3ccc(C(=O)OC)cc3)cc2C1=O	692 s
CCn1c(=O)sc2cc(S(=O)(=O)N3CCC(C(=O)Nc4ccc(C)cc4C)CC3)ccc21	932 s

SMILES	RP-LC retention time
Cc1ccc(CNC(=O)c2ccc(CN3CCN(C(C)C)C(=O)C3=O)cc2)cc1C	763 s
CCOc1ccccc1-c1nc(Cn2cnc3onc(C)c3c2=O)c(C)o1	928 s
Cc1ccc(N2C(=O)C3N=NN(Cc4nc(-c5cccc(C(F)(F)F)c5)no4)C3C2=O)cc1Cl (centres undefined)	1180 s
CCOC(=O)c1nn(-c2ccccc2)c(=O)cc1NCc1ccccn1	649 s
O=c1c2ccccc2c(-c2nc(-c3cccnc3)no2)cn1-c1ccc(Cl)cc1	1120 s
O=C1CC(c2nc(-c3cccc(Cl)c3)no2)CN1c1ccc2c(c1)OCCO2 (centres undefined)	1000 s
Cc1cc(CN2CCC(CNC(=O)C(=O)Nc3cccnc3)CC2)c(C)o1	681 s
COc1ccccc1N1CCN(C(=O)Cn2cnc3onc(C)c3c2=O)CC1	720 s
CC(C)Cc1nc(N2CCNCC2)c(C#N)c2c1COC(C)(C)C2	683 s
CCc1csc(-c2ccc(N3CCN(C(=O)c4ccc(F)cc4)CC3)nc2)n1	921 s
COc1ccc(C2CC(=O)N(c3ccc(F)c(C)c3)C(=O)C2)cc1	930 s
CC1CCN(c2ccc(-c3cccc(N)c3)nn2)CC1	588 s
Cc1cccc(-n2c(=O)c3sccc3n(Cc3nc(-c4ccc(C)c(C)c4)no3)c2=O)c1	1150 s
CCc1nc(-c2c(C)cc(C)nc2NC(=O)c2ccc(F)cc2)no1	812 s
COc1ccc(S(=O)(=O)NC2CCN(C(=O)Nc3ccc(F)c(Cl)c3)CC2)cc1	900 s
Cn1cc(S(=O)(=O)NCc2ccc(F)cc2Cl)c2cccnc21	821 s
COC[C@@H]1CN(c2cnccn2)C[C@H]1C(=O)NCC1CC1	594 s
CCC(C)NC(=O)Cc1cccn1-c1ccc(F)cc1 (centres undefined)	856 s
O=C(NCCc1c[nH]c2ccccc12)C(=O)NCC(c1ccco1)N1CCOCC1 (centres undefined)	582 s
Cc1ccccc1-c1noc(CN2C(=O)COc3ccc(Cl)cc32)n1	1120 s
CCOC(=O)CC(NC(=O)NCc1ccnc(N2CCCCC2)c1)c1ccccc1 (centres undefined)	645 s
Cc1ccc(NCCN(C)C)c2c(=O)c3cc(O)ccc3sc12	736 s
O=C(NCc1nnnn1C1CCCCC1)c1c(F)cccc1Cl	763 s

SMILES	RP-LC retention time
CC(=O)c1sc(Nc2nc3cc4c(cc3s2)OCO4)nc1C	778 s
COc1ccc(Cl)cc1S(=O)(=O)N1CCC(C(=O)Nc2ccccc2)CC1	913 s
Cc1ccccc1S(=O)(=O)N1CCC(Cc2nncn2-c2ccccc2)CC1	827 s
COc1cccc(CNC(=O)Cn2c(C)cc(-c3nnc(C4CCC4)o3)c2C)c1	834 s
COc1cccc(-n2ccc(=O)c(-c3nc(-c4cccc(OC)c4OC)no3)n2)c1	826 s
CNC(=O)c1cc2c(cn1)[nH]c1ccccc12	706 s
CN(C)c1ncccc1C(=O)Nc1ccc(F)cc1	610 s
Cn1cnc(S(=O)(=O)N2CCC[C@H](n3c(=O)n(C)c4cccnc43)C2)c1	654 s
COC(=O)c1cc(C2CC2)nc2c1c(=O)n(Cc1cccc(C)c1)c(=O)n2C	1090 s
CCOc1ccccc1NC(=O)CN1C(=O)C(O)(c2cccc(C)c2)c2ccccc21 (centres undefined)	640 s
O=C(CCC1CCCC1)NCCc1noc(C2CC2)n1	807 s
Cc1nnsc1C(=O)Nc1nnc(Cc2ccc3c(c2)OCO3)o1	740 s
CCCn1cc(CCNS(=O)(=O)c2ccc(C(C)C)cc2)c2cccnc21	1030 s
COc1ccc(NC(=O)Cn2c(=O)n(-c3ccc(C)cc3)c(=O)c3c2cc(C)n3C)c(OC)c1	872 s
O=C(NCC1CC1)C1CCN(C(=O)c2ncn3c2COC(c2ccc(F)cc2)C3)CC1 (centres undefined)	699 s
O=C(CCc1ccccc1)N1CCN(C(=O)c2nnn3c2COC(c2ccccc2)C3)CC1 (centres undefined)	891 s
Cc1ccccc1-n1c(=O)c2sccc2n(Cc2nc(-c3ccc(Cl)c(F)c3)no2)c1=O	1120 s
O=C(c1ccc(OCC2CCCN(C(=O)c3ccoc3)C2)cc1)N1CCOCC1 (centres undefined)	690 s
Cc1cc(NC(=O)N2C[C@@H](F)C[C@H]2C(=O)N2CCCCC2)ccc1Br	824 s
c1ccc2c(CCNc3ncnc4nc[nH]c34)c[nH]c2c1	577 s
